Measured values taken from US6978724B2, “Copper complexes and their use as wood preservatives” (E.I. Du Pont de Nemours and Company, priority 2002, dated 2005).

Tests used:
white, hairy fungus = assay: Soil burial of pressure-imbibed SYP wooden stakes in flower pots, visual examination; conditions: SYP stakes imbibed at 5000 ppm copper, 155 psi; about 3/4 buried in moist non-sterile soil, greenhouse at 78° C, after 5 months
Experimental: Two pre-weighed SYP wooden stakes (¾″×¾″×12″ or ¾″×1½″×12″) were loaded into a hastaloy pressure vessel and covered with imbibement solution at room temperature. The imbibement solution was prepared by diluting the preparations given in Example 1 with water to a copper concentration of 5000 ppm. The vessel was evacuated for 5 min and then pressured with nitrogen for 1 h at 155 psi at which time the pressure was removed. The stakes were then removed from the vessel and allowed to drip dry. Weights were then recorded to insure that the wood was penetrated with the imbibement solution. The stakes were then dried overnight in a convection oven at 55° C. Weights of the dried stakes were then recorded.
These treated stakes along with control (untreated) stakes were labeled and buried in a flower pot with about ¾ of the wood below the surface of non-sterile soil. The flower pots were kept moist in a greenhouse at […]. After 5 months, the stakes were visually examined.

non-sterile soil = assay: Ground burial exposure of treated newsprint and cardboard; conditions: newsprint soaked 5 min in 5000 ppm copper solution; buried in moist non-sterile garden soil 90 days, 18 to 24° C
Text: Cellulosic materials, including newsprint and cardboard samples, treated with copper amidoxime or hydroxamic acid complexes are preserved after being buried in non-sterile soil for 90 days. (Procedure adapted from: Hussey, S. W., More Brownie Girl Scout Try-Its, Girl Scouts of the U.S.A., 81 (1989).) In the same soil, untreated newsprint and cardboard samples were consumed microbially resulting in disintegration of the materials. Given that the composition of mechanically pulped newsprint closely resembles that of coniferous trees (Table 1, U.S. Pat. No. 5,582,682), this method serves as a rapid test for screening for preservatives of wood.
The imbibement solution was prepared by diluting the preparations given in Example 1 with water to a copper concentration of 5000 ppm. Samples of newsprint were soaked in solutions of the copper complexes for 5 min. The paper was removed from the imbibing solution, blotted nearly dry, air-dried overnight, and then placed in sacks made from nylon stockings. The sacks were labeled and closed with nylon twist-ties. Control samples of untreated newsprint were placed in similar nylon sacks. The sacks of treated and untreated newsprint were buried in clay pots containing moist, non-sterile garden soil for 90 days and maintained at approximately 18 to 24° C. After 90 days the sacks were unburied, opened, and the contents examined for decomposition. […]

## Copper Complex of the Amidoxime of Sorbitol [Example 1]
white, hairy fungus
  visual examination of stakes for covering of white, hairy fungus below the soil surface: showed no such covering
non-sterile soil
  decomposition of treated newsprint: still intact and the printing was still legible
